Measured values from US20170066797A1, “WITHAFERIN A ANALOGS AND USES THEREOF” (Whitehead Institute for Biomedical Research, priority 2008, published 2017).

Experiments:
[1] = test system: minimal heat shock response element derived from the promoter region of the Hsp70B gene; test: Heat shock reporter (EGFP) induction; assay type: cell-based; conditions: overnight exposure, FIG. 8
Procedure: FIG. 8. Heat shock reporter induction measured by micro plate fluorimeter. Reporter cells stably transduced with a plasmid encoding enhanced green fluorescent protein (EGFP) under the control of a minimal heat shock response element were exposed to 2,3-dihydrowithaferin A-3β-O-sulfate (WA-SO4) or withaferin A (WA) at the indicated concentrations overnight. Relative fluorescence units (RFU) per well were determined as a measure of reporter activation. Each point represents the mean of nine determinations from three independent experiments.
Immortalized mouse embryo fibroblasts derived from homozygous Hsf1 knockout mice or their wild type littermates were exposed overnight to equitoxic concentrations of 1 or the known heat shock-inducing Hsp90 inhibitor gendanamycin. Whole cell lysates were prepared in non-ionic detergent buffer and immunoblotted for relative levels of Hsp72, a highly inducible member of the Hsp70 family of molecular chaperones, using monoclonal antibody C92F3A-5 (StressMarq Biosciences, Victoria, BC). Reactivity was detected using peroxidase-conjugated secondary antibody and chemiluminescent detection. To evaluate the relative ability of compounds to induce a heat shock response at the transcriptional level, a reporter cell line was used as previously described (Turbyville, et al., J. Nat. Prod. (2006) 69: 178-184, incorporated herein by reference). […]

Hsp72, Hsp27 = test: Heat-shock protein induction in organs after IP administration; assay type: in vivo, mice; conditions: IP 18 mg/kg/day, 16 hours after last injection, FIG. 10
Procedure: FIG. 10. Heat-shock protein induction following Withaferin A (WA) administration to mice. WA was formulated in DMSO/Cremophor/Saline vehicle and injected intraperitoneally (IP) at a total dose of 18 mg/kg/day, either as a single injection (WA ×1) or divided in two 9 mg/kg injections (WA ×2) spaced 6 hrs apart. Control animals received an equal volume of vehicle alone as a single injection. Mice were sacrificed 16 hours after the last injection, organs harvested and protein lysates prepared for immunoblotting. Equal loading of samples was confirmed by staining membranes for total protein (left panels). The relative tissue levels of Hsp72, Hsp27 and Annexin 2 (a putative target of Withaferin A) were determined by probing with specific antibodies as indicated. Note the robust induction of heat shock protein levels in spleen (Annexin 2 positive), but not normal brain (Annexin 2 negative) associated with prior Withaferin A exposure.

Annexin 2 = molecular target: T1, Annexin 2 (Homo sapiens, UniProt P07355); test: Pull-down with biotinylated withaferin A on NeutrAvidin beads with competition; assay type: binding; conditions: competition with WA 40 μM, 36 kDa band, FIG. 11
T1 construct: incubated with pre-cleared whole cell extract that had been previously supplemented with WA (40 μM) or an equal volume of DMSO; endogenous in cells
T1 sequence (P07355 whole entry, species assumed): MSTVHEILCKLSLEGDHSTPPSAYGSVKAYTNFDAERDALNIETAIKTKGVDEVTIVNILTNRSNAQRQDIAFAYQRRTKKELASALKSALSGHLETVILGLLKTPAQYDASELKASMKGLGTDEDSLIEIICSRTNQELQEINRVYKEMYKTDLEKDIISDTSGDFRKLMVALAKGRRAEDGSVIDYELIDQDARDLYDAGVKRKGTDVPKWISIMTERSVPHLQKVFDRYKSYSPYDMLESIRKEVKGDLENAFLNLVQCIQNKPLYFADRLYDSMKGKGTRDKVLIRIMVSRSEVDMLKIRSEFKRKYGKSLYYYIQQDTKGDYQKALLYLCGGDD
Procedure: FIG. 11. Stable and specific binding of Annexin 2 by withaferin A. Biotinylated withaferin A (WA) was captured on NeutrAvidin (NA)-coated beads and incubated with pre-cleared whole cell extract that had been previously supplemented with WA (40 μM) or an equal volume of DMSO. After low stringency washes, proteins bound to beads were eluted, size fractioned by SDS-PAGE, stained with Sypro Ruby, and visualized by UV illumination. The arrowhead indicates the position of a 36 kDa band effectively competed away by WA. Pre-clear lane: Proteins in whole cell extract that bound non-specifically to NA beads alone (no immobilized WA present) during pre-clearing incubation.

[2] = test system: primary astrocytes / primary neurons co-culture; test: Glutathione depletion astrocyte-neuron co-culture model (HCA, MAP-2 readout); assay type: cell-based, rat; conditions: astrocytes pre-treated 24 h, then 5 mM homocysteic acid 48 h, FIG. 14
Procedure: FIGS. 14A and 14B. (A) Withaferin A (WA) mediates astrocyte-dependent neuronal protection. Primary astrocytes cultured from the cerebral cortices of postnatal rat pups, were treated with WA for 24 h, and were washed with serum-containing media to completely remove WA from the culture media. […] 48 h later neuronal viability was assessed by quantifying the neuronal marker MAP-2. (B) WA-mediated neuroprotection from oxidative stress.
WA was tested in a second model for neuroprotection that utilizes primary astrocytes cultured from the cerebral cortices of postnatal day 1-3 rat pups. In the CNS, astrocytes play a pivotal role in protecting neurons from oxidative stress, a hallmark of nearly all neurodegenerative diseases and disorders. […]
In this assay, which is summarized in FIG. 13, primary astrocytes were isolated from the cerebral cortices of postnatal day 1-3 rat pups, allowed to grow to confluency for ˜2 weeks, and then treated with test compound for 24 h. […] Quantification of the neuron-specific protein microtubule-associated protein-2 (MAP-2) is used to monitor neuronal specific death in this astrocyte-neuron co-culture model as described previously (Carrier et al., J. Neuroscience Methods, 154: 239-244.2006). […] HRP activity is then measured using a reaction buffer containing 150 uM amplex red (Molecular Probes) and 800 uM hydrogen peroxide (Sigma). […]

[3] = test system: Ewing's sarcoma cells (CHP-100); conditions: 72 hours, MTT, FIG. 5
Text: Relative viable cell number was quantified by MTT assay. Results are presented as a percentage compared to wells exposed to DMSO alone. […] Points: mean of triplicate determinations; Error bars: s.d.

## CC1=C(CO)C(=O)OC([C@@H](C)C2CCC3C4C[C@H]5O[C@]56[C@@H](O)C=CC(=O)[C@]6(C)C4CC[C@@]32C)C1 (stereo partly drawn) [Withaferin A]
[1]
  heat shock reporter induction: response can be induced at compound exposures compatible with cell survival
Hsp72, Hsp27; annexin II absent
  heat shock response induction in brain: not in brain cells
Hsp72, Hsp27; annexin II present
  heat shock response induction in spleen: induces the heat shock response in spleen cells
Annexin 2
  binding to annexin II: binds stably and selectively to annexin II
[2]
  astrocyte-dependent protection of neurons from oxidative stress (MAP-2): enhance the protection of neurons exposed to oxidative stress
[3]
  inhibition of tumor cell growth in vitro, CHP-100: inhibit tumor growth in Ewing's sarcoma
